Values after ≈ are worked out from the molar mass of the structure shown. Read-outs that look alike come from different tables or passages of the source. Positions of bridges follow the written chain, without caps; N, C: chain ends. Non-standard residues stand in square brackets, D forms with d. Residues, ends and D or L forms follow the SMILES beside them. *: point of attachment. Ileψ(thiazoline)Cys = CC[C@H](C)[C@H](N)C1=N[C@H](C(=O)*)CS1; dOrn = NCCC[C@@H](N)C(=O)O
Test system: Enterococcus faecalis ATCC 51299 strain
Assay: MIC levels of antibiotics against Vancomycin-resistant bacteria
Assay type: cell-based
From the text: Enterococcus faecalis ATCC 51299 strain was used as Vancomycin-resistant bacteria.

[1] = Enterococcus faecalis, ATCC51299, 16 h; read-out: MIC levels after 16 hours of culture
[2] = Enterococcus faecalis, ATCC51299, 24 h; read-out: MIC levels after 24 hours of culture

| Compound | MIC [1] | MIC [2] | other results |
| --- | --- | --- | --- |
| CC1(C)S[C@@H]2[C@H](NC(=O)[C@H](N)c3ccccc3)C(=O)N2[C@H]1C(=O)O [Ampicillin] | 0.5 µg/mL (≈ 1.43 µM) | 0.5 µg/mL (≈ 1.43 µM) |  |
| CC[C@H](C)[C@H](N)C1=N[C@H](C(=O)N[C@@H](CC(C)C)C(=O)N[C@H](CCC(=O)O)C(=O)N[C@H](C(=O)N[C@H]2CCCCNC(=O)[C@H](CC(N)=O)NC(=O)[C@@H](CC(=O)O)NC(=O)[C@H](Cc3cnc[nH]3)NC(=O)[C@@H](Cc3ccccc3)NC(=O)[C@H]([C@@H](C)CC)NC(=O)[C@@H](CCCN)NC2=O)[C@@H](C)CC)CS1 [Bacitracin] ({Ileψ(thiazoline)Cys}-L[dE]IK[dOrn]I[dF]H[dD]N; lactam 4-C) | 64 µg/mL (≈ 45 µM) | 128 µg/mL (≈ 90 µM) |  |
| O=C(N[C@H](CO)[C@H](O)c1ccc([N+](=O)[O-])cc1)C(Cl)Cl [Chloramphenicol] | 64 µg/mL (≈ 198 µM) | 128 µg/mL (≈ 396 µM) |  |
| CC[C@H]1OC(=O)[C@H](C)[C@@H](O[C@H]2C[C@@](C)(OC)[C@@H](O)[C@H](C)O2)[C@H](C)[C@@H](O[C@@H]2O[C@H](C)C[C@H](N(C)C)[C@H]2O)[C@](C)(O)C[C@@H](C)C(=O)[C@H](C)[C@@H](O)[C@]1(C)O [Erythromycin] | 512 µg/mL (≈ 698 µM) | > 512 µg/mL |  |
| Cc1onc(-c2ccccc2)c1C(=O)N[C@@H]1C(=O)N2[C@@H]1SC(C)(C)[C@@H]2C(=O)O [Oxacillin] | 32 µg/mL (≈ 79.7 µM) | 64 µg/mL (≈ 159 µM) |  |
| [H]/N=C(/N)N[C@H]1[C@H](O)[C@@H](O)[C@H](O[C@@H]2O[C@@H](C)[C@](O)(C=O)[C@H]2O[C@@H]2O[C@@H](CO)[C@H](O)[C@@H](O)[C@@H]2NC)[C@@H](N/C(N)=N\[H])[C@@H]1O [Streptomycin] | > 512 µg/mL | > 512 µg/mL |  |
| CN(C)[C@@H]1C(O)=C(C(N)=O)C(=O)[C@@]2(O)C(O)=C3C(=O)c4c(O)cccc4[C@@](C)(O)[C@H]3C[C@@H]12 [Tetracycline] | 0.5 µg/mL (≈ 1.13 µM) | 1 µg/mL (≈ 2.25 µM) |  |
| CN[C@H](CC(C)C)C(=O)N[C@H]1C(=O)N[C@@H](CC(N)=O)C(=O)N[C@H]2C(=O)N[C@H]3C(=O)N[C@H](C(=O)N[C@H](C(=O)O)c4cc(O)cc(O)c4-c4cc3ccc4O)[C@H](O)c3ccc(c(Cl)c3)Oc3cc2cc(c3O[C@@H]2O[C@H](CO)[C@@H](O)[C@H](O)[C@H]2O[C@H]2C[C@](C)(N)[C@H](O)[C@H](C)O2)Oc2ccc(cc2Cl)[C@H]1O [Vancomycin] |  |  | MIC (Enterococcus faecalis, ATCC51299, 16 h, read-out: MIC levels after 16 hours of culture): 16 µg/mL (≈ 11 µM); MIC (Enterococcus faecalis, ATCC51299, 24 h, read-out: MIC levels after 24 hours of culture): 64 µg/mL (≈ 44.2 µM) |
| Gentamicin |  |  | MIC levels after 16 hours of culture (16 hours of culture): >512 µg/mL; MIC levels after 24 hours of culture (24 hours of culture): >512 µg/mL |
| Teicoplanin |  |  | MIC levels after 16 hours of culture (16 hours of culture): 1 µg/mL; MIC levels after 24 hours of culture (24 hours of culture): 1 µg/mL |

Source: US20060067923A1, “Preventing agent against drug-resistant bacterial infection” (priority 2004, published 2006)
